Assay results published in US7402585B2, “Substituted quinazoline derivatives as inhibitors of aurora kinases” (AstraZeneca AB, priority 2001, dated 2008).

How the values were obtained:
[1] = target: T1, Aurora-A kinase (Homo sapiens, UniProt O14965); test: In vitro Aurora-A kinase inhibition test; format: biochemical
T1 construct: 6His (with spacer region and rTEV protease cleavage site from pFastBac HTc) (N); made in house; host or cells: Spodoptera frugiperda Sf21 insect cells (baculovirus, pFastBac HTc)
T1 sequence (O14965 1-403): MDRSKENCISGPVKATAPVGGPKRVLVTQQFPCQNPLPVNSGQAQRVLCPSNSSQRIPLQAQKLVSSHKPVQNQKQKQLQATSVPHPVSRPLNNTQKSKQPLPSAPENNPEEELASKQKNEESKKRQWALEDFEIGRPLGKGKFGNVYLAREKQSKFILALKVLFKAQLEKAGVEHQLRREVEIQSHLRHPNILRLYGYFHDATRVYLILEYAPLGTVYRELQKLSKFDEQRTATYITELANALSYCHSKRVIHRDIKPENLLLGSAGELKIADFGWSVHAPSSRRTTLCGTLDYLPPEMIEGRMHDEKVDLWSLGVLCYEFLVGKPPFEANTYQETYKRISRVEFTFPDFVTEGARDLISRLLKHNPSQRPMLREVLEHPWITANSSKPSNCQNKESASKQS

[2] = tested on: SW620 cells; test: In vitro cell proliferation assay (BrdU incorporation); format: cell-based; conditions: SW-620; SW620 human tumour cell line, 48 hours with compound, 2 hour BrdU labelling; read-out: concentration active (50% inhibition of BrdU incorporation)
From the text: (c) In Vitro Cell Proliferation Assay
This and other assays can be used to determine the ability of a test compound to inhibit the growth of adherent mammalian cell lines, for example the human tumour cell line SW620 (ATCC CCL-227). This assay determines the ability of at test compound to inhibit the incorporation of the thymidine analogue, 5′-bromo-2′-deoxy-uridine (BrdU) into cellular DNA. SW620 or other adherent cells were typically seeded at 1×10^5 cells per well in L-15 media (GIBCO) plus 5% foetal calf serum, 1% L-glutamine (100 μl/well) in 96 well tissue culture treated 96 well plates (Costar) and allowed to adhere overnight. […] The optical density of the wells was then determined at 690 nm wavelength using a Titertek Multiscan plate reader. […]

Row | SMILES | IC50 [1] [nM] | IC50 [2] [nM]
1 | COc1cc2c(Nc3cc(CC(=O)Nc4cccc(F)c4)[nH]n3)ncnc2cc1OCCCN1CCC[C@H]1CO [Compound 8, N-(3-fluorophenyl)-2-{3-[(7-{3-[(2S)-2-(hydroxymethyl)pyrrolidin-1-yl]propoxy}-6-methoxyquinazolin-4-yl)amino]-1H-pyrazol-5-yl}acetamide] | 10 | 86
2 | COc1cc2c(Nc3cc(CC(=O)Nc4cccc(F)c4)[nH]n3)ncnc2cc1OCCCN(C)CCO [Compound 13, N-(3-fluorophenyl)-2-{3-[(7-{3-[(2-hydroxyethyl)(methyl)amino]propoxy}-6-methoxyquinazolin-4-yl)amino]-1H-pyrazol-5-yl}acetamide] | 1 | 79
